Experimental data: patent publication US8143025B2, “Antibodies against vascular endothelial growth factor receptor-1” (ImClone LLC, priority 2004, dated 2012)
“Also recorded” adds a separate entry of the source.

Assays:
DU4475 carcinoma cells = assay: Cell growth assay (Example 5); format: cell-based, human; details: 3, 10, 30 μg/ml antibody, 50 ng/ml VEGF or 200 ng/ml PlGF, 48 hours
Protocol: DU4475 carcinoma cells were seeded at a density of 5×10^3/well into 96-well plates in serum-free conditions for 18 hours, and in some case followed by treatment with 100 nM of desferoxamine for additional 5 hours. Inhibitory effect of anti-VEGFR-I antibody on tumor cell growth was determined by incubation of cells with anti-VEGFR-I antibody clones 6F9, 13G12, 15F1 1, and 18F1 at doses of 3, 10, and 30 μg/ml in the presence of 50 ng/ml of VEGF or 200 ng/ml of PlGF for 48 hours. Viable cells were then counted in triplicate using a Coulter cytometer (Coulter Electronics Ltd. Luton, Beds, England). Each experiment was done in triplicate.

HT-29 cells = assay: Migration through membrane insert; format: cell-based, human; details: 66 nM antibody, 10 ng/mL VEGF-A or 50 ng/mL VEGF-B, 48 hours, p<0.05, FIG. 23
Protocol: HT-29 cells (2.5×1 10^4) or SW480 cells (1.5×1 10^4) were incubated in medium containing 1% FBS with the anti-VEGFR-1 antibody 18F1 (66 nM) in the upper surface of a 24 well MATRIGEL™ coated (HT-29) or uncoated (SW480) 8.0-μm pore size membrane insert (Becton Dickinson Labware, Bedford, Mass.). The inserts were placed into lower chambers containing 10 ng/mL VEGF-A (R&D Systems) or 50 ng/mL VEGF-B (R&D Systems) for 48 hours. Cells remaining in the top chamber of the inserts were removed with a cotton swab. Cells migrating to the underside of the inserts were stained with Diff-Quik (Harleco, Gibbstown, N.J.) and counted in ten random fields at 100× magnification. Statistical analysis was performed using InStat Statistical Software (V2.03, GraphPad Software, San Diego, Calif.).

VEGFR-I = VEGFR-I (Homo sapiens, UniProt P17948); assay: VEGFR-I phosphorylation assay, BT474 cells; format: cell-based; design: endogenous in cells; host or cells: BT474 human breast carcinoma cells; details: BT474 breast cancer cells, compared to untreated control, FIG. 11
Sequence of VEGFR-I (P17948 27-1338): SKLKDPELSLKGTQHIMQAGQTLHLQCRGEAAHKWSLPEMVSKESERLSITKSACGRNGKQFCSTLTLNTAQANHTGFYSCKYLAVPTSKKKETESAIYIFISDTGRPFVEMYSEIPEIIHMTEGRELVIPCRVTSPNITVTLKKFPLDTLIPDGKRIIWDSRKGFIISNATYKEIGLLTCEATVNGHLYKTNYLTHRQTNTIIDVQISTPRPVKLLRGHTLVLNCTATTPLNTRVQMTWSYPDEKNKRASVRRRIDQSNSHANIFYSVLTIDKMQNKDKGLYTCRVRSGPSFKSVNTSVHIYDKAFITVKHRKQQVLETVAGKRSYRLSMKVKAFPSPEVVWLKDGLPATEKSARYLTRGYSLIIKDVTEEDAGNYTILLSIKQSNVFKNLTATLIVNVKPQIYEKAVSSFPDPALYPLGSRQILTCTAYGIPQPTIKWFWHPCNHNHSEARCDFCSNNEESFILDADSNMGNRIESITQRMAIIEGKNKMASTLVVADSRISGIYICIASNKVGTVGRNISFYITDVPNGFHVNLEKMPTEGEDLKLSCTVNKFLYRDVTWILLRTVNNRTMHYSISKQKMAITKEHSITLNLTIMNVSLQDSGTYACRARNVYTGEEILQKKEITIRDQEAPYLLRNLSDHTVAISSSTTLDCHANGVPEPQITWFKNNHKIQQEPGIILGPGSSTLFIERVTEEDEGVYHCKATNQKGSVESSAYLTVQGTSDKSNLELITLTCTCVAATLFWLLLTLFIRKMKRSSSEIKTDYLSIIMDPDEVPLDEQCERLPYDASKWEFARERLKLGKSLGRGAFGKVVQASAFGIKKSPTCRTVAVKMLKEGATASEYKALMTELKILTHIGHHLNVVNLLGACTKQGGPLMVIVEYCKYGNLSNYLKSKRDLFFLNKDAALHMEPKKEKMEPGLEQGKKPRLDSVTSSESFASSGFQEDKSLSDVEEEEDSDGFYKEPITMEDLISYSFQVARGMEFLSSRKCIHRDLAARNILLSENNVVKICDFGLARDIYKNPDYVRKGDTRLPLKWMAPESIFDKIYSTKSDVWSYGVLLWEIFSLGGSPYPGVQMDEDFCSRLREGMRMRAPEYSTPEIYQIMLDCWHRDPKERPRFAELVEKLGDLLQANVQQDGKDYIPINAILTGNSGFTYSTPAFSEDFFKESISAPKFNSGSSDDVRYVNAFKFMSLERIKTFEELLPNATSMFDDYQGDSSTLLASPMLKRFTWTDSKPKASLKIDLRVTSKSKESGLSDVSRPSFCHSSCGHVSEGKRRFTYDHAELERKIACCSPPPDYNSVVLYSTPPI
Protocol: Confluent porcine aorta endothelial VEGFR-I expressing (PAE-VEGFR-I) cells and BT474 human breast carcinoma cells were cultured in serum-depleted F12 medium for 48 hours. The cells were then preincubated with anti-VEGFR-I antibody clone 18F1 at concentrations ranging from 0.1 to 30 μg/ml for 1 hour followed by stimulating with VEGF or PlGF for 5 minutes at 37° C. The cells were then rinsed with ice-cold PBS and lysed in lysis buffer (50 mM HEPES, 150 mM NaCl, 1% Triton X-100, and 10% glycerol containing 1 mM phenylmethylsulfonyl fluoride, 10 μg/ml aprotinin, 10 μg/ml leupeptin, and 1 mM sodium vanadate). Cell lysates were subjected to SDS-PAGE and transferred onto Immobilon membranes (Millipore Corp. Billerica, Mass.). […]
Autophosphorylation of the VEGFR-I induced by its ligands and resulting activation of a classical MAPK, extracellular signal-regulated protein kinases 1Z2 (ERK1Z2) and the PBK/Atk downstrean signaling pathways mediate cellular biological responses such as proliferation, motility, survival, and differentiation. The ability of an anti-VEGFR-1 antibody to inhibit phosphorylation of VEGFR-I and activation of ERK1 Z2 and the Akt kinases downstream signaling were determined by using the PAE-VEGFR-I transfectant and BT474 breast carcinoma cells. […]

18F1: human anti-VEGFR-1 monoclonal antibody clone; VL SEQ ID NO: 16, VH SEQ ID NO: 20 [Clone 18F1]
VEGF and PlGF stimulated proliferation of DU4475 breast carcinoma cells (DU4475 carcinoma cells): inhibition | VEGFR-I ligand induced migration (HT-29 cells): completely blocked | PlGF or VEGF-stimulated phosphorylation of VEGFR-I (VEGFR-I): significantly reduced; also recorded: inhibition
